Tests used:
SR = test: NCI SRB cytotoxicity, SR; format: cell-based, human; conditions: Leukemia SR, 48 hrs exposure
Source text: (§1) The C8-linked carbazole-PBD hybrids have been tested against sixty human tumour cell lines derived from nine cancer types (leukemia, non-small cell lung cancer, colon cancer, CNS cancer, melanoma, ovarian cancer, renal cancer, prostate cancer and breast cancer) as per NCI protocol, For each compound, dose response curves for individual cell lines have been measured at a minimum of five concentrations at 10 fold dilutions. A protocol of 48 hrs continuous drug exposure has been used, and a sulforhodamine B (SRB) protein assay was used to estimate cell viability or growth. The concentration for 50% cell growth inhibition (GI50), total cell growth inhibition (TGI, 0% growth) and 50% cell death (LC50, […]) compared with the control has been calculated (Table-3).
(§2) Compounds 6c and 14a have been evaluated for in vitro cytotoxicity in sixty cell lines from nine human cancer types of lung (Hop-62, NCI-H226, NCI-H522), leukemia (K-562, SR), colon (HCT-116, HCT-15, HCC-2998), CNS(SF-539), melanoma (SK-MEL-5, UACC-62, M14), ovarian (IGROV1), renal (A498), prostate (PC3) breast (BT-549, MDA-MB-435, HS578T) origin. The results are expressed as percent of cell growth determined relative to that of untreated control cells (Table 1).

[1] = tested on: ovarian cancer cell lines; test: NCI SRB cytotoxicity, ovarian panel; format: cell-based, human; conditions: average of six to eight cell lines
Source text: as §1, §2

SNB-19 = test: NCI SRB cytotoxicity, SNB-19; format: cell-based, human; conditions: CNS SNB-19, 48 hrs exposure
Source text: as §1, §2

HCT-15 = test: NCI SRB cytotoxicity, HCT-15; format: cell-based, human; conditions: Colon HCT-15, 48 hrs exposure
Source text: as §1, §2

RXF 393 = test: NCI SRB cytotoxicity, RXF 393; format: cell-based, human; conditions: Renal RXF 393, 48 hrs exposure
Source text: as §1, §2

[2] = tested on: sixty human tumour cell lines derived from nine cancer types; test: NCI in vitro cytotoxicity screen (SRB), sixty cell lines; format: cell-based; conditions: for GI50: 48 hrs continuous drug exposure, SRB, read-out: GI50 against sixty cell lines in nine cancer cell panels; for in vitro cytotoxicity: sixty cell lines from nine human cancer types
Source text: as §1, §2

NCI-H522 = test: NCI SRB cytotoxicity, NCI-H522; format: cell-based, human; conditions: Non-small cell lung NCI-H522, 48 hrs exposure
Source text: as §1, §2

HCC-2998 = test: NCI SRB cytotoxicity, HCC-2998; format: cell-based, human; conditions: Colon HCC-2998, 48 hrs exposure
Source text: as §1, §2

HT 29 = test: NCI SRB cytotoxicity, HT 29; format: cell-based, human; conditions: Colon HT 29, 48 hrs exposure
Source text: as §1, §2

SK-MEL-5 = test: NCI SRB cytotoxicity, SK-MEL-5; format: cell-based, human; conditions: Melanoma SK-MEL-5, 48 hrs exposure
Source text: as §1, §2

OVCAR-4 = test: NCI SRB cytotoxicity, OVCAR-4; format: cell-based, human; conditions: Ovarian OVCAR-4, 48 hrs exposure
Source text: as §1, §2

MALME-3M = test: NCI SRB cytotoxicity, MALME-3M; format: cell-based, human; conditions: Melanoma MALME-3M, 48 hrs exposure
Source text: as §1, §2

786-0 = test: NCI SRB cytotoxicity, 786-0; format: cell-based, human; conditions: Renal 786-0, 48 hrs exposure
Source text: as §1, §2

SW-620 = test: NCI SRB cytotoxicity, SW-620; format: cell-based, human; conditions: Colon SW-620, 48 hrs exposure
Source text: as §1, §2

SF-539 = test: NCI SRB cytotoxicity, SF-539; format: cell-based, human; conditions: CNS SF-539, 48 hrs exposure
Source text: as §1, §2

SK-MEL-2 = test: NCI SRB cytotoxicity, SK-MEL-2; format: cell-based, human; conditions: Melanoma SK-MEL-2, 48 hrs exposure
Source text: as §1, §2

SF-268 = test: NCI SRB cytotoxicity, SF-268; format: cell-based, human; conditions: CNS SF-268, 48 hrs exposure
Source text: as §1, §2

PC-3 = test: NCI SRB cytotoxicity, PC-3; format: cell-based, human; conditions: Prostate PC-3, 48 hrs exposure
Source text: as §1, §2

K-562 = test: NCI SRB cytotoxicity, K-562; format: cell-based, human; conditions: Leukemia K-562, 48 hrs exposure
Source text: as §1, §2

OVCAR-5 = test: NCI SRB cytotoxicity, OVCAR-5; format: cell-based, human; conditions: Ovarian OVCAR-5, 48 hrs exposure
Source text: as §1, §2

NCI-H226 = test: NCI SRB cytotoxicity, NCI-H226; format: cell-based, human; conditions: Non-small cell lung NCI-H226, 48 hrs exposure
Source text: as §1, §2

A549/ATCC = test: NCI SRB cytotoxicity, A549/ATCC; format: cell-based, human; conditions: Non-small cell lung A549/ATCC, 48 hrs exposure
Source text: as §1, §2

LOX IMVI = test: NCI SRB cytotoxicity, LOX IMVI; format: cell-based, human; conditions: Melanoma LOX IMVI, 48 hrs exposure
Source text: as §1, §2

MOLT-4 = test: NCI SRB cytotoxicity, MOLT-4; format: cell-based, human; conditions: Leukemia MOLT-4, 48 hrs exposure
Source text: as §1, §2

MCF7 = test: NCI SRB cytotoxicity, MCF7; format: cell-based, human; conditions: Breast MCF7, 48 hrs exposure
Source text: as §1, §2

M14 = test: NCI SRB cytotoxicity, M14; format: cell-based, human; conditions: Melanoma M14, 48 hrs exposure
Source text: as §1, §2

DU-145 = test: NCI SRB cytotoxicity, DU-145; format: cell-based, human; conditions: Prostate DU-145, 48 hrs exposure
Source text: as §1, §2

U251 = test: NCI SRB cytotoxicity, U251; format: cell-based, human; conditions: CNS U251, 48 hrs exposure
Source text: as §1, §2

[3] = against nine human tumor cell lines

Compound | Log10 GI50 [1] [mol/L] | Log10 LC50 (concentration causing 50% lethality) [1] [mol/L] | GI50 (SNB-19) [µM] | GI50 (HCT-15) [µM] | GI50 (RXF 393) [µM] | GI50 [2] [µM] | Log10 TGI mean graph midpoint (MG_MID) ([2]; human tumour cell lines) | in vitro cytotoxicity [2] | GI50 (HCC-2998) [µM] | GI50 (SK-MEL-5) [µM] | GI50 (OVCAR-4) [µM] | GI50 (MALME-3M) [µM] | GI50 (786-0) [µM] | GI50 (SF-539) [µM] | GI50 (SK-MEL-2) [µM] | also measured
COc1cc2c(cc1OCCCN1CCN(CCCn3c4ccccc4c4ccccc43)CC1)N=C[C@@H]1CCCN1C2=O [Compound 14a] | −7.22 | −5.80 | 0.21 | 0.28 | 0.22 | < 0.01 | −6.24 | significant cytotoxicity against some cancer cell lines | 0.13 | 0.23 | 0.1 | 0.15 | 0.19 | 0.12 | 0.19 | GI50 (SR): 0.03 µM; activity of 14a compared with 6c ([2]; GI50 comparison): ten folds higher activity than 6c; GI50 (NCI-H522): < 0.01 µM; GI50 (HT 29): 0.05 µM; GI50 (SW-620): 0.04 µM
COc1cc2c(cc1OCCCCCn1c3ccccc3c3ccccc31)N=C[C@@H]1CCCN1C2=O [Compound 6c, 7-Methoxy-8-[5-(9H-9-carbazoly)pentyloxy]-(11aS)-1,2,3,11a-tetrahydro-5H-Pyrrolo[2,1-c][1,4]benzodiazepin-5-one] | −5.57 | −4.59 | 2.05 | 1.67 | 4.34 | 1.03 | −5.29 | significant cytotoxicity against some cancer cell lines | 1.71 | 1.73 | 3.09 | 2.2 | 1.73 | 1.85 | 1.67 | GI50 (SF-268): 1.91 µM; GI50 (PC-3): 2.36 µM; GI50 (K-562): 2.6 µM; GI50 (OVCAR-5): 2.42 µM; log10 GI50 mean graph midpoint value [2, 3]: −5.67 mol/lit; log10 LC50 mean graph midpoint value [2, 3]: −4.67 mol/lit; log10 TGI mean graph midpoint value [2, 3]: −5.29 mol/lit; Log10 GI50 mean graph midpoint (MG_MID) ([2]; human tumour cell lines): −5.67; Log10 LC50 mean graph midpoint (MG_MID) ([2]; human tumour cell lines): −4.67; GI50 (NCI-H226): 2.49 µM; GI50 (A549/ATCC): 1.57 µM; GI50 (LOX IMVI): 2.08 µM; GI50 (MOLT-4): 2.15 µM; GI50 (MCF7): 2.33 µM; GI50 (M14): 2.1 µM; GI50 (DU-145): 2.23 µM; GI50 (U251): 1.59 µM
